The source of these data is patent publication US20240190865A1, “T-TYPE CALCIUM CHANNEL ANTAGONISTS AND USES THEREOF” (THE BOARD OF TRUSTEES OF THE LELAND STANFORD JUNIOR …, priority 2021, published 2024).

In one assay the target is Cav3.2 (Homo sapiens (Human), UniProt O95180). Put plainly: In vitro patch clamp assay (SyncroPatch 384PE). Type of assay: cell-based. As to conditions: HEK293 cells. How it is done:
Patch clamp assays were performed at Charles River. HEK293 cells were cultured in Dulbecco's Modified Eagle Medium/Nutrient Mixture F-12 (D-MEM/F-12) supplemented with 10% fetal bovine serum, 100 U/mL penicillin G sodium, 100 μg/mL streptomycin sulfate and 500 μg/mL G418. Before testing, cells in culture dishes were washed twice with Hank's Balanced Salt Solution, treated with Accutase™ and re-suspended in the culture media (˜20×10^6 cells in 20 mL). Cells in suspension were allowed to recover for 10 minutes in tissue culture incubator set at 37° C. in a humidified 95% air: 5% CO2 atmosphere. Immediately before use in the SyncroPatch 384PE system (SP384PE), the cells were washed twice in extracellular buffer (HB-PS) to remove the culture medium and re-suspended in 20 mL of HB-PS. Extracellular buffer was loaded into the wells of Nanion 384-well Patch Clamp (NPC-384, 4×M) chip (60 μL per well). Then, cell suspension was pipetted into the wells (20 μL per well) of the chip. After establishment of the whole-cell configuration, membrane currents were recorded using patch clamp amplifier in the SP384PE system.
A general note: Patch clamp records ionic current or voltage across a cell membrane.

The test system of the next assay is Miro1. In words: Miro1 reduction after compound administration, Western blot. It is filed as cell-based. As to conditions: Western blot method.

The IC50 is the concentration that gives 50% inhibition. A low value points to higher potency.

Where only a bound is given, the exact number is not on record here.

Cav3.2, sequence (O95180 whole entry): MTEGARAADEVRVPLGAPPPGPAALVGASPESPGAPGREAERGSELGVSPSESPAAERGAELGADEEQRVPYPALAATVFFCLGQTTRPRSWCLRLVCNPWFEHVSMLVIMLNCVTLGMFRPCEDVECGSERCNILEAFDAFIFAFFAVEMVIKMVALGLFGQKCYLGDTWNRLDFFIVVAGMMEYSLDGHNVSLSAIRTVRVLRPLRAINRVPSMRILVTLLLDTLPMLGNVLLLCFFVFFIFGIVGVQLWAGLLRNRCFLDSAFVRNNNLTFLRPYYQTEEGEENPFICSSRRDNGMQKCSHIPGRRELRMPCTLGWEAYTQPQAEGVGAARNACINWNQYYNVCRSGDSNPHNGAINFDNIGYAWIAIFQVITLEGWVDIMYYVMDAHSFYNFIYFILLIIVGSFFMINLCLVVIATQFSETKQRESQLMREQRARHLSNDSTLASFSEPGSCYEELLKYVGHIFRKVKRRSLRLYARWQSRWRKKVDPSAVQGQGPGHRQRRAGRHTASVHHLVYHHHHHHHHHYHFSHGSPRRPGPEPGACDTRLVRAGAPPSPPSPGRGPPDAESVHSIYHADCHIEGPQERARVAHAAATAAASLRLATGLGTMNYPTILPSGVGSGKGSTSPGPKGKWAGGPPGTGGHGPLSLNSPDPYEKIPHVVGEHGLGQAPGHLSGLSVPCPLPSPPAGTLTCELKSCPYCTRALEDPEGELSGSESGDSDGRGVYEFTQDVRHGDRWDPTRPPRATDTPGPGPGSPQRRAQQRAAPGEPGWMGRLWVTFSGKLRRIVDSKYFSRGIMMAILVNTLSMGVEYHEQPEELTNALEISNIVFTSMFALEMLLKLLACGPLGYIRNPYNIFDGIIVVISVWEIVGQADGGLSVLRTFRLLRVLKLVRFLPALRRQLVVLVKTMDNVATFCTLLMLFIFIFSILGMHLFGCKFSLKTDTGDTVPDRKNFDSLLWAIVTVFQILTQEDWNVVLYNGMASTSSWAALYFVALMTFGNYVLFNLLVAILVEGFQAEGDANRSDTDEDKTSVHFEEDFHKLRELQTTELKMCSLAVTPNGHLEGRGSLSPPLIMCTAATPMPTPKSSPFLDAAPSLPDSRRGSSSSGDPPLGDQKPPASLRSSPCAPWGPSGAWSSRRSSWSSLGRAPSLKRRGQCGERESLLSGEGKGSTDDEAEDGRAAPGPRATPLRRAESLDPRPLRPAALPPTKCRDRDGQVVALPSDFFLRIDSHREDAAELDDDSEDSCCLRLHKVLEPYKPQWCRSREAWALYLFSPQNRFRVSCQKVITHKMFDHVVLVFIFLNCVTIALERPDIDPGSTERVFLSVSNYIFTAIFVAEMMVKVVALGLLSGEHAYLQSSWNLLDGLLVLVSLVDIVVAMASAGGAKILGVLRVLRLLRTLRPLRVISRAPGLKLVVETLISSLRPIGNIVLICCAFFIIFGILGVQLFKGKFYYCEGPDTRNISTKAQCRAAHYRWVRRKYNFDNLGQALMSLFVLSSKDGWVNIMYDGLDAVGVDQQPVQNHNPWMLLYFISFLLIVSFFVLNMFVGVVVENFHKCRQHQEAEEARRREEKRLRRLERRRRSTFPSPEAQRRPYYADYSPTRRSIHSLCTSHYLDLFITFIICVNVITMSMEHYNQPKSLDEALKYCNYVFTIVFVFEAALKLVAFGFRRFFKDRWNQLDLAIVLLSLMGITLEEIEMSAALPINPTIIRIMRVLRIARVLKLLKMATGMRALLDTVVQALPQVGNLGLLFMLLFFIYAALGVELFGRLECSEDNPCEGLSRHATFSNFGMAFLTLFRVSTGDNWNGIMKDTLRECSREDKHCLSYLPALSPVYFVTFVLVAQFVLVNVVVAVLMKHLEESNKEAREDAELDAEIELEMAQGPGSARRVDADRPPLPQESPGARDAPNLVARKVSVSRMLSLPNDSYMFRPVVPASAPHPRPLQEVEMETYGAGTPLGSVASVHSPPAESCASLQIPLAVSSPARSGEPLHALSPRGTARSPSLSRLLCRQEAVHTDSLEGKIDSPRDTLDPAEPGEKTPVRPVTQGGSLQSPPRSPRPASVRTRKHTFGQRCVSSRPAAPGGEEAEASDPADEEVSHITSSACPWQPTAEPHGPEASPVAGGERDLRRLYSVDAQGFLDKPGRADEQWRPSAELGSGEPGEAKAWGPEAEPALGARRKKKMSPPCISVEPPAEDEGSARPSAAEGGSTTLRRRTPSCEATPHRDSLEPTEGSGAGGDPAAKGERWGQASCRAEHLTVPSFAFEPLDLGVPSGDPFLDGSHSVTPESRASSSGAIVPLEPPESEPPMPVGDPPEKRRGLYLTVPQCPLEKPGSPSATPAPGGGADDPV

`C[C@@H](NC(=O)Cc1ccc(C2CC2)cn1)c1cc2cnn(CC(F)(F)F)c2cn1` [Example 34, (R)-2-(5-cyclopropylpyridin-2-yl)-N-(1-(1-(2,2,2-trifluoroethyl)-1H-pyrazolo[3,4-c]pyridin-5-yl)ethyl)acetamide] displayed an IC50 on Cav3.2 of more than 10000 nM.

In the case of `C[C@@H](NC(=O)Cc1cnc(C(C)(F)F)c(Cl)c1)c1cc2cnn(CC(F)(F)F)c2cn1` [Example 35, (R)-2-(5-chloro-6-(1,1-difluoroethyl)pyridin-3-yl)-N-(1-(1-(2,2,2-trifluoroethyl)-1H-pyrazolo[3,4-c]pyridin-5-yl)ethyl)acetamide], inhibition on Cav3.2 was half-maximal at 2130 nM (IC50).

In turn, `C[C@@H](NC(=O)Cc1cnc(C2CC2)c(Cl)c1)c1cc2cnn(CC(F)(F)F)c2cn1` [Example 36, (R)-2-(5-chloro-6-cyclopropylpyridin-3-yl)-N-(1-(1-(2,2,2-trifluoroethyl)-1H-pyrazolo[3,4-c]pyridin-5-yl)ethyl)acetamide] registered an IC50 against Cav3.2 of 873 nM. This IC50 is about 2.4-fold lower than that of the compound before.

Take `C[C@@H](NC(=O)Cc1ccc(C(C)(F)F)c(Cl)c1)c1cc2cnn(CC(F)(F)F)c2cn1` [Example 37, (R)-2-(3-chloro-4-(1,1-difluoroethyl)phenyl)-N-(1-(1-(2,2,2-trifluoroethyl)-1H-pyrazolo[3,4-c]pyridin-5-yl)ethyl)acetamide]: half-maximal inhibition at Cav3.2 (IC50) was put at 84 nM. Against the preceding compound, the IC50 is about 10-fold lower.

On Cav3.2, `C[C@@H](NC(=O)Cc1ccc(C(C)(F)F)c(F)c1)c1cc2cnn(CC(F)(F)F)c2cn1` [Example 38, (R)-2-(4-(1,1-difluoroethyl)-3-fluorophenyl)-N-(1-(1-(2,2,2-trifluoroethyl)-1H-pyrazolo[3,4-c]pyridin-5-yl)ethyl)acetamide] returned an IC50 of 123 nM.

For the compound `C[C@@H](NC(=O)Cc1cnc(C2CC2)c(F)c1)c1cc2cnn(CC(F)(F)F)c2cn1` [Example 39, (R)-2-(6-cyclopropyl-5-fluoropyridin-3-yl)-N-(1-(1-(2,2,2-trifluoroethyl)-1H-pyrazolo[3,4-c]pyridin-5-yl)ethyl)acetamide], half-maximal inhibition against Cav3.2 (IC50) required 519 nM.

Consider `C[C@@H](NC(=O)Cc1ccc(C(F)(F)F)cc1)c1cc2cnn(CC(C)(F)F)c2cn1` [Example 40, (R)—N-(1-(1-(2,2-difluoropropyl)-1H-pyrazolo[3,4-c]Pyridin-5-yl)ethyl)-2-(4-(trifluoromethyl)phenyl)acetamide], for which, on Cav3.2, 827 nM corresponded to half-maximal inhibition (IC50).

`C[C@@H](NC(=O)Cc1ccc(C(C)(F)F)cc1)c1cc2cnn(CC(C)(F)F)c2cn1` [Example 41, (R)-2-(4-(1,1-difluoroethyl)phenyl)-N-(1-(1-(2,2-difluoropropyl)-1H-pyrazolo[3,4-c]pyridin-5-yl)ethyl)acetamide] came in with an IC50 at Cav3.2 of 727 nM. The IC50 values of the last two compounds are within 1.5-fold of each other.

Turning to `C[C@@H](NC(=O)Cc1ccc(C(F)(F)F)c(F)c1)c1cc2cnn(CC(F)(F)F)c2cn1` [Example 42, (R)-2-(3-fluoro-4-(trifluoromethyl)phenyl)-N-(1-(1-(2,2,2-trifluoroethyl)-1H-pyrazolo[3,4-c]pyridin-5-yl)ethyl)acetamide], the IC50 at Cav3.2 amounted to 394 nM.

In turn, `C[C@@H](NC(=O)Cc1ccc(C(F)(F)F)c(Cl)c1)c1cc2cnn(CC(F)(F)F)c2cn1` [Example 43, (R)-2-(3-chloro-4-(trifluoromethyl)phenyl)-N-(1-(1-(2,2,2-trifluoroethyl)-1H-pyrazolo[3,4-c]pyridin-5-yl)ethyl)acetamide] had an IC50 against Cav3.2 of 214 nM.

As for `C[C@@H](NC(=O)Cc1ccc(C2(C(F)(F)F)CC2)cc1)c1cc2cnn(CC(F)(F)F)c2cn1` [Example 44, (R)—N-(1-(1-(2,2,2-trifluoroethyl)-1H-pyrazolo[3,4-c]pyridin-5-yl)ethyl)-2-(4-(1-(trifluoromethyl)cyclopropyl)phenyl)acetamide], 71 nM corresponded to half-maximal inhibition on Cav3.2 (IC50).

The compound `CC[C@@H](NC(=O)Cc1ccc(C(F)(F)F)cc1)c1cc2cnn(CC(F)(F)F)c2cn1` [Example 45, (R)—N-(1-(1-(2,2,2-trifluoroethyl)-1H-pyrazolo[3,4-c]pyridin-5-yl)propyl)-2-(4-(trifluoromethyl)phenyl)acetamide] had an IC50 on Cav3.2 of 113 nM.

On Cav3.2, `Cc1c2ccc(CC(=O)N[C@H](C)c3cc4cnn(CC(F)(F)F)c4cn3)cc2nn1C` [Example 46, (R)-2-(2,3-dimethyl-2H-indazol-6-yl)-N-(1-(1-(2,2,2-trifluoroethyl)-1H-pyrazolo[3,4-c]pyridin-5-yl)ethyl)acetamide] had an IC50 of 806 nM.

On to `C[C@@H](NC(=O)Cc1ccc(C2(C#N)CC2)cc1)c1cc2cnn(CC(F)(F)F)c2cn1` [Example 47, (R)-2-(4-(1-cyanocyclopropyl)phenyl)-N-(1-(1-(2,2,2-trifluoroethyl)-1H-pyrazolo[3,4-c]pyridin-5-yl)ethyl)acetamide], for which half-maximal inhibition at Cav3.2 (IC50) was put at 220 nM.

`C[C@@H](NC(=O)Cc1ccc2c(c1)OC(F)(F)O2)c1cc2cnn(CC(F)(F)F)c2cn1` [Example 48, (R)-2-(2,2-difluorobenzo[d][1,3]dioxol-5-yl)-N-(1-(1-(2,2,2-trifluoroethyl)-1H-pyrazolo[3,4-c]pyridin-5-yl)ethyl)acetamide]: the IC50 on Cav3.2 was 260 nM.

At Cav3.2, `Cc1nn(C)c2ccc(CC(=O)N[C@H](C)c3cc4cnn(CC(F)(F)F)c4cn3)cc12` [Example 49, (R)-2-(1,3-dimethyl-1H-indazol-5-yl)-N-(1-(1-(2,2,2-trifluoroethyl)-1H-pyrazolo[3,4-c]pyridin-5-yl)ethyl)acetamide] yielded an IC50 of 352 nM.

In the case of `C[C@@H](NC(=O)Cc1ccc2c(c1)c(C#N)cn2C)c1cc2cnn(CC(F)(F)F)c2cn1` [Example 50, (R)-2-(3-cyano-1-methyl-1H-indol-5-yl)-N-(1-(1-(2,2,2-trifluoroethyl)-1H-pyrazolo[3,4-c]pyridin-5-yl)ethyl)acetamide], on Cav3.2, the 50% inhibitory concentration (IC50) was determined as 850 nM. Compared with the last compound, the IC50 is about 2.4-fold higher.

At Cav3.2, `C[C@@H](NC(=O)Cc1ccc(C(F)(F)F)cc1)c1cc2ccn(CC(F)(F)F)c2cn1` [Example 51, (R)—N-(1-(1-(2,2,2-trifluoroethyl)-1H-pyrrolo[2,3-c]pyridin-5-yl)ethyl)-2-(4-(trifluoromethyl)phenyl)acetamide] gave an IC50 of 411 nM.

Consider `C[C@@H](NC(=O)Cc1ccc(C(C)(F)F)c(C#N)c1)c1cc2cnn(CC(F)(F)F)c2cn1` [Example 52, (R)-2-(3-cyano-4-(1,1-difluoroethyl)phenyl)-N-(1-(1-(2,2,2-trifluoroethyl)-1H-pyrazolo[3,4-c]pyridin-5-yl)ethyl)acetamide], for which, on Cav3.2, the IC50 worked out at 389 nM.

Take `Cc1nc2cc(CC(=O)N[C@H](C)c3cc4cnn(CC(F)(F)F)c4cn3)ccc2n1C` [Example 53, (R)-2-(1,2-dimethyl-1H-benzo[d]imidazol-5-yl)-N-(1-(1-(2,2,2-trifluoroethyl)-1H-pyrazolo[3,4-c]pyridin-5-yl)ethyl)acetamide]: the IC50 against Cav3.2 was 919 nM.

`Cc1c(C#N)c2cc(CC(=O)N[C@H](C)c3cc4cnn(CC(F)(F)F)c4cn3)ccc2n1C` [Example 54, (R)-2-(3-cyano-1,2-dimethyl-1H-indol-5-yl)-N-(1-(1-(2,2,2-trifluoroethyl)-1H-pyrazolo[3,4-c]pyridin-5-yl)ethyl)acetamide] showed an IC50 on Cav3.2 of 529 nM. Compared with the last compound, the IC50 is about 1.7-fold lower.

In turn, `[2H][C@](C)(NC(=O)Cc1ccc(C(F)(F)F)cc1)c1cc2cnn(CC(F)(F)F)c2cn1` [Example 55, (R)—N-(1-(1-(2,2,2-trifluoroethyl)-1H-pyrazolo[3,4-c]pyridin-5-yl)ethyl-1-d)-2-(4-(trifluoromethyl)phenyl)acetamide] came in with an IC50 against Cav3.2 of 335 nM.

At Cav3.2, `CC(C)c1ccc(CC(=O)N[C@H](C)c2ccc(OCC(F)(F)F)cn2)cc1` [Example 56, 2-(4-isopropylphenyl)-N-[(1R)-1-(5-(2,2,2-trifluoroethoxy)pyridin-2-yl)ethyl]acetamide] gave an IC50 of 37 nM.

Turning to `CC(C)c1ccc(CC(=O)N[C@H](C)c2cc3c(cn2)OC(F)(F)O3)cc1` [Example 57, (R)—N-(1-(2,2-difluoro-[1,3]dioxolo[4,5-c]pyridin-6-yl)ethyl)-2-(4-isopropylphenyl)acetamide], the IC50 on Cav3.2 worked out at 868 nM. This IC50 lies about 23-fold higher than the previous one.

Regarding `C[C@@H](NC(=O)Cc1ccc(C2(C(F)(F)F)CC2)nc1)c1ncc(Cl)s1` [Example 58, (R)—N-(1-(5-chlorothiazol-2-yl)ethyl)-2-(6-(1-(trifluoromethyl)cyclopropyl)pyridin-3-yl)acetamide], the IC50 at Cav3.2 was determined as 4900 nM.

As to `C[C@@H](NC(=O)Cc1ccc(C2(C(F)(F)F)CC2)nc1)c1ccc(OCC(F)(F)F)cn1` [Example 59, (R)—N-(1-(5-(2,2,2-trifluoroethoxy)pyridin-2-yl)ethyl)-2-(6-(1-(trifluoromethyl)cyclopropyl)pyridin-3-yl)acetamide], inhibition on Cav3.2 was half-maximal at 97 nM (IC50).

For `NS(=O)(=O)Cc1noc2ccccc12` [Zonisamide, 1,2-benzisoxazole-3-methanesulfonamide], the “Miro1 Lowering” value in the assay on Miro1 was “YES”.
